Assay results reported in the NIST ThermoML archive (doi:10.1016/j.tca.2016.08.008).

O=P([O-])([O-])[O-].[Tb+3] [terbium orthophosphate]
101.33 kPa, Metastable crystal
Settings | mass density [kg/m3] | molar entropy [J/K/mol]
7 K, Vacuum adiabatic calorimetry | – | 0.0744
8 K, Vacuum adiabatic calorimetry | – | 0.1113
9 K, Vacuum adiabatic calorimetry | – | 0.1586
10 K, Vacuum adiabatic calorimetry | – | 0.2174
12 K, Vacuum adiabatic calorimetry | – | 0.3747
14 K, Vacuum adiabatic calorimetry | – | 0.5915
16 K, Vacuum adiabatic calorimetry | – | 0.8724
18 K, Vacuum adiabatic calorimetry | – | 1.219
20 K, Vacuum adiabatic calorimetry | – | 1.627
25 K, Vacuum adiabatic calorimetry | – | 2.889
30 K, Vacuum adiabatic calorimetry | – | 4.414
35 K, Vacuum adiabatic calorimetry | – | 6.129
40 K, Vacuum adiabatic calorimetry | – | 7.99
45 K, Vacuum adiabatic calorimetry | – | 9.975
50 K, Vacuum adiabatic calorimetry | – | 12.07
55 K, Vacuum adiabatic calorimetry | – | 14.26
60 K, Vacuum adiabatic calorimetry | – | 16.53
70 K, Vacuum adiabatic calorimetry | – | 21.26
80 K, Vacuum adiabatic calorimetry | – | 26.15
90 K, Vacuum adiabatic calorimetry | – | 31.12
100 K, Vacuum adiabatic calorimetry | – | 36.12
110 K, Vacuum adiabatic calorimetry | – | 41.09
120 K, Vacuum adiabatic calorimetry | – | 46.02
130 K, Vacuum adiabatic calorimetry | – | 50.9
140 K, Vacuum adiabatic calorimetry | – | 55.72
150 K, Vacuum adiabatic calorimetry | – | 60.46
160 K, Vacuum adiabatic calorimetry | – | 65.13
170 K, Vacuum adiabatic calorimetry | – | 69.73
180 K, Vacuum adiabatic calorimetry | – | 74.26
190 K, Vacuum adiabatic calorimetry | – | 78.71
200 K, Vacuum adiabatic calorimetry | – | 83.09
210 K, Vacuum adiabatic calorimetry | – | 87.39
220 K, Vacuum adiabatic calorimetry | – | 91.63
230 K, Vacuum adiabatic calorimetry | – | 95.79
240 K, Vacuum adiabatic calorimetry | – | 99.88
250 K, Vacuum adiabatic calorimetry | – | 103.9
260 K, Vacuum adiabatic calorimetry | – | 107.9
270 K, Vacuum adiabatic calorimetry | – | 111.7
280 K, Vacuum adiabatic calorimetry | – | 115.6
290 K, Vacuum adiabatic calorimetry | – | 119.3
298 K, X-ray diffraction | 6088 | –
300 K, Vacuum adiabatic calorimetry | – | 123
310 K, Vacuum adiabatic calorimetry | – | 126.6
320 K, Vacuum adiabatic calorimetry | – | 130.2
325 K, Vacuum adiabatic calorimetry | – | 132
340 K, Small sample (50 mg) DSC | – | 137.1
360 K, Small sample (50 mg) DSC | – | 143.9
380 K, Small sample (50 mg) DSC | – | 150.4
400 K, Small sample (50 mg) DSC | – | 156.7
420 K, Small sample (50 mg) DSC | – | 162.7
440 K, Small sample (50 mg) DSC | – | 168.6
460 K, Small sample (50 mg) DSC | – | 174.3
480 K, Small sample (50 mg) DSC | – | 179.8
500 K, Small sample (50 mg) DSC | – | 185.2
520 K, Small sample (50 mg) DSC | – | 190.4
540 K, Small sample (50 mg) DSC | – | 195.4
560 K, Small sample (50 mg) DSC | – | 200.3
580 K, Small sample (50 mg) DSC | – | 205.1
600 K, Small sample (50 mg) DSC | – | 209.7
620 K, Small sample (50 mg) DSC | – | 214.2
640 K, Small sample (50 mg) DSC | – | 218.6
660 K, Small sample (50 mg) DSC | – | 222.8
680 K, Small sample (50 mg) DSC | – | 227
700 K, Small sample (50 mg) DSC | – | 231
720 K, Small sample (50 mg) DSC | – | 235
740 K, Small sample (50 mg) DSC | – | 238.8
760 K, Small sample (50 mg) DSC | – | 242.6
780 K, Small sample (50 mg) DSC | – | 246.2
800 K, Small sample (50 mg) DSC | – | 249.8
820 K, Small sample (50 mg) DSC | – | 253.3
840 K, Small sample (50 mg) DSC | – | 256.8
860 K, Small sample (50 mg) DSC | – | 260.1
880 K, Small sample (50 mg) DSC | – | 263.4
900 K, Small sample (50 mg) DSC | – | 266.7
920 K, Small sample (50 mg) DSC | – | 269.8
940 K, Small sample (50 mg) DSC | – | 272.9
960 K, Small sample (50 mg) DSC | – | 275.9
980 K, Small sample (50 mg) DSC | – | 278.9
1000 K, Small sample (50 mg) DSC | – | 281.8
1009 K, Small sample (50 mg) DSC | – | 283.1

Settings | Triple point temperature [K]
Crystal 2, DSC | 1643
